Reference: the supplement of paper PMC6045584
± gives the standard deviation of the averaged measurements.

What was measured:
[1] = compound: CCN(CC)CCCCNc1ncc2cc(-c3cc(OC)cc(OC)c3)c(NC(=O)NC(C)(C)C)nc2n1; test: surviving fraction relative to DMSO-only wells; higher = less growth inhibition; settings: exposure time: 5 days
Method in brief: (§1)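 For each tumour cell line, log-phase cells were put into 384-well plates at 250–500 cells per well, then after 24 hours exposed continuously for five days to inhibitors at 0.5, 1, 5, 10, 50, 100, 500 and 1000 nM. Viability was assessed by CellTiter-Glo luminescence, with surviving fraction expressed relative to the median of DMSO-only wells. Lines were screened three times and retained only if replicate Pearson r exceeded 0.7 and median Z' exceeded 0.3.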

DECITABINE = compound: Nc1ncn([C@H]2C[C@H](O)[C@@H](CO)O2)c(=O)n1 [DECITABINE]; test: as above; settings: exposure time: 5 days
Method in brief: as §1

Test System | surviving fraction ([1]; 0.5 nM) | surviving fraction ([1]; 1 nM) | surviving fraction ([1]; 5 nM) | surviving fraction ([1]; 10 nM) | surviving fraction ([1]; 50 nM) | surviving fraction ([1]; 100 nM) | surviving fraction ([1]; 500 nM) | surviving fraction ([1]; 1000 nM) | surviving fraction (DECITABINE; 0.5 nM) | surviving fraction (DECITABINE; 1 nM) | surviving fraction (DECITABINE; 5 nM) | surviving fraction (DECITABINE; 10 nM) | surviving fraction (DECITABINE; 50 nM) | surviving fraction (DECITABINE; 100 nM) | surviving fraction (DECITABINE; 500 nM) | surviving fraction (DECITABINE; 1000 nM)
HCC1395 BREAST | 0.991 ± 0.2 | 0.785 ± 0.093 | 0.968 ± 0.14 | 0.9 ± 0.021 | 0.872 ± 0.14 | 0.867 ± 0.074 | 0.826 ± 0.17 | 0.818 ± 0.18 | 1.19 ± 0.054 | 0.956 ± 0.1 | 1.34 ± 0.079 | 1.23 ± 0.072 | 1.26 ± 0.045 | 1.25 ± 0.086 | 1.17 ± 0.073 | 1.09 ± 0.031
HCC1806 BREAST | 1.11 ± 0.012 | 0.967 ± 0.1 | 1.11 ± 0.065 | 1.14 ± 0.033 | 1.11 ± 0.089 | 1.07 ± 0.043 | 1.06 ± 0.13 | 1.1 ± 0.095 | 0.937 ± 0.083 | 0.698 ± 0.11 | 0.531 ± 0.02 | 0.483 ± 0.031 | 0.256 ± 0.039 | 0.159 ± 0.0035 | 0.083 ± 0.012 | 0.0507 ± 0.008
HCC1954 BREAST | 1.01 ± 0.021 | 1.04 ± 0.04 | 0.945 ± 0.058 | 1.11 ± 0.051 | 1.08 ± 0.041 | 1.04 ± 0.2 | 0.829 ± 0.072 | 0.951 ± 0.11 | 1.07 ± 0.19 | 1.05 ± 0.13 | 1.32 ± 0.13 | 1.32 ± 0.05 | 1.13 ± 0.13 | 1.22 ± 0.023 | 1.29 ± 0.044 | 1.08 ± 0.044
HCT15 LARGE INTESTINE | 0.875 ± 0.033 | 0.981 ± 0.02 | 0.971 ± 0.025 | 1.01 ± 0.012 | 0.963 ± 0.027 | 0.9977 ± 0.0093 | 0.987 ± 0.011 | 1.06 ± 0.047 | 1 ± 0.02 | 0.982 ± 0.056 | 0.967 ± 0.021 | 0.961 ± 0.017 | 1.05 ± 0.032 | 0.987 ± 0.032 | 0.835 ± 0.026 | 0.893 ± 0.032
HELA CERVIX | 0.979 ± 0.028 | 0.994 ± 0.034 | 0.971 ± 0.042 | 0.984 ± 0.019 | 1.03 ± 0.047 | 1.07 ± 0.065 | 1.06 ± 0.023 | 1.13 ± 0.075 | 1.03 ± 0.043 | 0.9852 ± 0.0096 | 1.05 ± 0.043 | 1 ± 0.017 | 1.1 ± 0.03 | 1.08 ± 0.017 | 1.15 ± 0.065 | 0.944 ± 0.032
HOS BONE | 0.99 ± 0.019 | 1.01 ± 0.013 | 0.9947 ± 0.0083 | 1.03 ± 0.022 | 0.9823 ± 0.005 | 1.01 ± 0.015 | 0.9423 ± 0.0071 | 0.927 ± 0.025 | 1.01 ± 0.039 | 1.02 ± 0.018 | 1.03 ± 0.031 | 0.995 ± 0.011 | 1.06 ± 0.015 | 1.02 ± 0.015 | 0.8753 ± 0.0038 | 0.731 ± 0.029
HOSMNG BONE | 1.02 ± 0.09 | 1 ± 0.072 | 0.994 ± 0.04 | 1.01 ± 0.062 | 0.996 ± 0.062 | 1.02 ± 0.11 | 1.02 ± 0.041 | 1.02 ± 0.065 | 1.04 ± 0.043 | 1.03 ± 0.057 | 1.02 ± 0.061 | 1.02 ± 0.072 | 1.1 ± 0.036 | 1.12 ± 0.086 | 1.1 ± 0.12 | 1.11 ± 0.046
HSSYII SYNOVIAL | 0.799 ± 0.027 | 0.9 ± 0.044 | 0.886 ± 0.029 | 0.784 ± 0.05 | 0.475 ± 0.013 | 0.402 ± 0.007 | 0.274 ± 0.005 | 0.26 ± 0.0082 | 0.972 ± 0.032 | 1.01 ± 0.046 | 0.933 ± 0.048 | 0.938 ± 0.073 | 0.86 ± 0.049 | 0.696 ± 0.024 | 0.48 ± 0.012 | 0.348 ± 0.036
HT1080 SOFT TISSUE | 1.036 ± 0.009 | 1.03 ± 0.024 | 1.02 ± 0.046 | 1 ± 0.025 | 1.03 ± 0.021 | 1.01 ± 0.021 | 1.03 ± 0.059 | 1.07 ± 0.029 | 1.1 ± 0.043 | 1.08 ± 0.042 | 1.07 ± 0.024 | 1.1 ± 0.058 | 0.964 ± 0.026 | 0.928 ± 0.083 | 0.665 ± 0.06 | 0.627 ± 0.016
HU09 BONE | 1 ± 0.045 | 1.01 ± 0.047 | 0.928 ± 0.028 | 1.02 ± 0.12 | 0.942 ± 0.061 | 0.921 ± 0.072 | 0.72 ± 0.011 | 0.715 ± 0.065 | 0.982 ± 0.083 | 0.968 ± 0.081 | 1.12 ± 0.13 | 0.997 ± 0.072 | 1.17 ± 0.13 | 1.04 ± 0.027 | 0.95 ± 0.084 | 0.847 ± 0.034
HUO3N1 BONE | 0.996 ± 0.074 | 0.993 ± 0.047 | 1.04 ± 0.052 | 0.999 ± 0.043 | 0.9503 ± 0.0051 | 0.906 ± 0.055 | 0.727 ± 0.04 | 0.69 ± 0.013 | 0.958 ± 0.022 | 0.99 ± 0.024 | 1.03 ± 0.056 | 1.05 ± 0.019 | 1.04 ± 0.022 | 1 ± 0.014 | 0.901 ± 0.017 | 0.879 ± 0.025
JIMT1 BREAST | 0.964 ± 0.028 | 0.951 ± 0.04 | 0.967 ± 0.054 | 1.01 ± 0.037 | 1.02 ± 0.011 | 1.03 ± 0.042 | 0.989 ± 0.031 | 1.02 ± 0.025 | 1.04 ± 0.021 | 0.999 ± 0.032 | 1 ± 0.018 | 0.9743 ± 0.0064 | 0.933 ± 0.038 | 0.819 ± 0.048 | 0.546 ± 0.036 | 0.471 ± 0.03
JURKAT HAEMATOPOIETIC AND LYMPHOID TISSUE | 1.03 ± 0.042 | 1.08 ± 0.015 | 1.04 ± 0.022 | 1.055 ± 0.0052 | 1 ± 0.039 | 1.05 ± 0.02 | 1.02 ± 0.021 | 1.07 ± 0.021 | 1 ± 0.04 | 1.06 ± 0.025 | 0.823 ± 0.022 | 0.746 ± 0.034 | 0.121 ± 0.0055 | 0.072 ± 0.003 | 0.0327 ± 0.00058 | 0.028 ± 0.001
KPD BONE | 0.978 ± 0.07 | 1.02 ± 0.033 | 1 ± 0.049 | 1.01 ± 0.12 | 1.02 ± 0.039 | 0.97 ± 0.058 | 0.925 ± 0.025 | 0.884 ± 0.058 | 0.916 ± 0.057 | 0.919 ± 0.053 | 0.801 ± 0.022 | 0.692 ± 0.056 | 0.534 ± 0.023 | 0.464 ± 0.012 | 0.379 ± 0.026 | 0.353 ± 0.044
LM7 BONE | 0.989 ± 0.039 | 0.966 ± 0.075 | 1.08 ± 0.13 | 1.07 ± 0.069 | 1.01 ± 0.043 | 1.13 ± 0.24 | 0.869 ± 0.075 | 0.739 ± 0.11 | 0.939 ± 0.025 | 1 ± 0.035 | 1.05 ± 0.05 | 0.983 ± 0.061 | 0.939 ± 0.027 | 0.91 ± 0.042 | 0.749 ± 0.044 | 0.742 ± 0.048
LNCAP PROSTATE | 0.864 ± 0.066 | 0.878 ± 0.1 | 0.7647 ± 0.0046 | 0.922 ± 0.16 | 0.898 ± 0.11 | 0.934 ± 0.11 | 0.933 ± 0.11 | 1.03 ± 0.026 | 0.917 ± 0.037 | 1.02 ± 0.11 | 0.954 ± 0.083 | 1.01 ± 0.11 | 0.785 ± 0.02 | 0.695 ± 0.1 | 0.634 ± 0.044 | 0.522 ± 0.0079
MCF7 BREAST | 0.884 ± 0.024 | 0.868 ± 0.063 | 0.864 ± 0.03 | 0.877 ± 0.068 | 0.878 ± 0.04 | 0.861 ± 0.038 | 0.878 ± 0.042 | 0.908 ± 0.069 | 0.932 ± 0.022 | 0.906 ± 0.065 | 0.887 ± 0.02 | 0.803 ± 0.02 | 0.843 ± 0.04 | 0.861 ± 0.026 | 0.842 ± 0.034 | 0.83 ± 0.043
MDAMB134 BREAST | 1 ± 0.079 | 0.807 ± 0.069 | 0.863 ± 0.03 | 0.977 ± 0.23 | 0.872 ± 0.073 | 0.902 ± 0.069 | 0.829 ± 0.064 | 0.873 ± 0.05 | 0.979 ± 0.082 | 1.06 ± 0.26 | 1.04 ± 0.1 | 1.02 ± 0.023 | 1.1 ± 0.12 | 1.25 ± 0.059 | 1.15 ± 0.042 | 1.22 ± 0.016
MDAMB157 BREAST | 0.85 ± 0.13 | 0.935 ± 0.05 | 0.898 ± 0.031 | 0.993 ± 0.026 | 0.856 ± 0.03 | 0.68 ± 0.045 | 0.467 ± 0.033 | 0.515 ± 0.0087 | 0.998 ± 0.013 | 0.907 ± 0.046 | 0.922 ± 0.13 | 0.897 ± 0.065 | 0.632 ± 0.042 | 0.547 ± 0.058 | 0.41 ± 0.075 | 0.382 ± 0.059
MDAMB231 BREAST | 0.974 ± 0.03 | 0.975 ± 0.026 | 0.9813 ± 0.0094 | 1.01 ± 0.02 | 0.995 ± 0.026 | 1.01 ± 0.034 | 1.01 ± 0.035 | 0.983 ± 0.022 | 1 ± 0.034 | 0.986 ± 0.024 | 1.01 ± 0.028 | 1 ± 0.022 | 1.01 ± 0.021 | 0.965 ± 0.013 | 0.865 ± 0.016 | 0.835 ± 0.039
MDAMB361 BREAST | 0.945 ± 0.025 | 0.917 ± 0.056 | 0.855 ± 0.092 | 0.839 ± 0.051 | 0.955 ± 0.097 | 0.846 ± 0.034 | 0.937 ± 0.065 | 0.859 ± 0.025 | 0.895 ± 0.057 | 0.909 ± 0.034 | 0.938 ± 0.08 | 0.875 ± 0.038 | 0.906 ± 0.19 | 0.915 ± 0.17 | 0.99 ± 0.2 | 0.921 ± 0.084
